Measurements: patent US8242055B2, “Herbicidally and insecticidally active phenyl-substituted pyridazinones” (Bayer Cropscience AG, priority 2008, dated 2012)
Each block holds one compound with its values, some of them ahead of it.

Legend:
[1] = system: eggs of the tobacco bud worm (Heliothis virescens); assay: Heliothis virescens test (spray treatment); format: in vivo; conditions: spray treatment of soybean leaves, application rate 500 g/ha, after 7 days; 100% = all eggs killed
Experimental: [table] To produce a suitable preparation of active compound, 1 part by weight of active compound is mixed with the stated amounts of solvents and emulsifier, and the concentrate is diluted with emulsifier-containing water to the desired concentration. Soybean leaves (Glycine max.) are sprayed with an active compound preparation of the desired concentration and, after drying, populated with eggs of the tobacco bud worm (Heliothis virescens). After 7 days, the effect in % is determined. 100% means that all the eggs have been killed; 0% means that none of the eggs have been killed.

Meloidogyne incognita = Meloidogyne incognita test (MELGIN); format: in vivo; conditions: application rate 20 ppm, lettuce roots; 100% = no galls formed
Experimental: [table] To produce a suitable preparation of active compound, 1 part by weight of active compound is mixed with the stated amounts of solvents and emulsifier, and the concentrate is diluted with water to the desired concentration. Containers are filled with sand, solution of active compound, Meloidogyne incognita egg/larvae suspension and lettuce seeds. The lettuce seeds germinate and the plants develop. On the roots, galls are formed. After the desired period of time, the nematicidal activity is determined in % by the formation of galls. 100% means that no galls are formed; 0% means that the number of galls on the treated plants corresponds to that of the untreated control.

Structure (SMILES): CC(C)(C)n1ncc(O)c(-c2ccc(Cl)cc2Cl)c1=O [I-1-a-5]
effect in % (eggs killed) [1]: at least 80%

melting point: 315 °C
Structure (SMILES): Cn1ncc(O)c(-c2ccc(Cl)c(Cl)c2)c1=O [I-1-a-4, 4-(3,4-dichlorophenyl)-5-hydroxy-2-methyl-3(2H)-pyridazinone]

Structure (SMILES): CC(C)(C)n1ncc(O)c(-c2cc(-c3ccc(Cl)cc3)ccc2Cl)c1=O [I-1-a-10]
nematicidal activity in % by the formation of galls (Meloidogyne incognita): at least 80%
